Laboratory results taken from PubChem BioAssay AID212 (DTP/NCI, 2004).
Values joined by “and” are separate entries in the source; they are usually repeats but may differ in a detail not shown here. Equal entries are not always repeated. Inconclusive results are not listed.

Test system: BDF1 mice, colon carcinoma 38 sc, T/C %
Assay: NCI In Vivo Anticancer Drug Screen. Data for tumor model Colon Carcinoma 38 (subcutaneous) in B6D2F1 (BDF1) mice
Details: endpoint: median tumor weight (est.), higher = larger tumour
Method in brief: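 T/C readout: treated group (T) measurement over vehicle control group (C) measurement. Endpoint is survival or tumor size in mice bearing a transplanted tumor.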

[1] = dose: 12.5 mg/kg/injection, schedule: Q07DX002 (ip), vehicle: saline
[2] = dose: 25.0 mg/kg/injection, schedule: Q07DX002 (ip), vehicle: saline
[3] = dose: 50.0 mg/kg/injection, schedule: Q07DX002 (ip), vehicle: saline
[4] = dose: 100.0 mg/kg/injection, schedule: Q07DX002 (ip), vehicle: saline
[5] = dose: 200.0 mg/kg/injection, schedule: Q07DX002 (ip), vehicle: saline
[6] = dose: 400.0 mg/kg/injection, schedule: Q07DX002 (ip), vehicle: saline

NC(=O)c1cn(C2OC(CO)C(O)C2O)c2ncnc(N)c12 (stereo unspecified)
T/C (dose: 0.5 mg/kg/injection, schedule: Q07DX002 (ip), vehicle: suspension in saline): 55 % of control | T/C (dose: 1.0 mg/kg/injection, schedule: Q07DX002 (ip), vehicle: suspension in saline): 84 % of control | T/C (dose: 2.0 mg/kg/injection, schedule: Q07DX002 (ip), vehicle: saline with Tween-80): 73 % of control | T/C (dose: 2.0 mg/kg/injection, schedule: Q07DX002 (ip), vehicle: suspension in saline): 56 % of control and 62 % of control | T/C (dose: 4.0 mg/kg/injection, schedule: Q07DX002 (ip), vehicle: saline with Tween-80): 79 % of control | T/C (dose: 4.0 mg/kg/injection, schedule: Q07DX002 (ip), vehicle: suspension in saline): 48 % of control and 73 % of control | T/C (dose: 8.0 mg/kg/injection, schedule: Q07DX002 (ip), vehicle: suspension in saline): 38 % of control

O=C1NCC(Br)C(=O)N1 (stereo unspecified)
T/C (dose: 12.5 mg/kg/injection, schedule: Q07DX002 (ip), vehicle: saline + Tween-80 + alcohol): 97 % of control | T/C (dose: 25.0 mg/kg/injection, schedule: Q07DX002 (ip), vehicle: saline + Tween-80 + alcohol): 83 % of control | T/C (dose: 50.0 mg/kg/injection, schedule: Q07DX002 (ip), vehicle: saline + Tween-80 + alcohol): 99 % of control | T/C (dose: 100.0 mg/kg/injection, schedule: Q07DX002 (ip), vehicle: saline + Tween-80 + alcohol): 76 % of control | T/C (dose: 100.0 mg/kg/injection, schedule: Q07DX002 (ip), vehicle: saline with Tween-80): 157 % of control | T/C (dose: 200.0 mg/kg/injection, schedule: Q07DX002 (ip), vehicle: saline + Tween-80 + alcohol): 84 % of control | T/C (dose: 400.0 mg/kg/injection, schedule: Q07DX002 (ip), vehicle: saline + Tween-80 + alcohol): 63 % of control

CCCCCCCCCCCCCCCC(=O)Nc1ccn(C2OC(CO)C(O)C2O)c(=O)n1 (stereo unspecified)
T/C [1]: 41 % of control | T/C [2]: 88 % of control | T/C [3]: 50 % of control | T/C [4]: 5 % of control | T/C [5]: 16 % of control | T/C [6]: 1 % of control

O=C1C(NCCO)=C(N2CC2)C(=O)C(NCCO)=C1N1CC1
T/C (dose: 0.12 mg/kg/injection, schedule: Q07DX002 (ip), vehicle: saline): 83 % of control and 91 % of control | T/C (dose: 0.25 mg/kg/injection, schedule: Q07DX002 (ip), vehicle: saline): 92 % of control

O=C(O)CCCc1ccc(N(CCCl)CCCl)cc1
T/C (dose: 7.5 mg/kg/injection, schedule: Q07DX003 (ip), vehicle: saline with Tween-80): 103 % of control | T/C (dose: 15.0 mg/kg/injection, schedule: Q07DX002 (ip), vehicle: Klucel (hydroxypropylcellulose) (HPC)): 62 % of control and 72 % of control and 82 % of control | T/C (dose: 15.0 mg/kg/injection, schedule: Q07DX003 (ip), vehicle: saline with Tween-80): 37 % of control | T/C (dose: 30.0 mg/kg/injection, schedule: Q07DX003 (ip), vehicle: saline with Tween-80): 62 % of control | T/C (dose: 60.0 mg/kg/injection, schedule: Q07DX002 (ip), vehicle: Klucel (hydroxypropylcellulose) (HPC)): 69 % of control

CCOC(=O)c1ccc(NN=NCCF)cc1
T/C (dose: 3.12 mg/kg/injection, schedule: Q07DX002 (ip), vehicle: saline with Tween-80): 86 % of control | T/C (dose: 6.25 mg/kg/injection, schedule: Q07DX002 (ip), vehicle: saline with Tween-80): 94 % of control | T/C (dose: 12.5 mg/kg/injection, schedule: Q07DX002 (ip), vehicle: saline with Tween-80): 70 % of control | T/C (dose: 25.0 mg/kg/injection, schedule: Q07DX002 (ip), vehicle: saline with Tween-80): 89 % of control

OCC1OC(n2cnc3c(Cl)ncnc32)C(O)C1O (stereo unspecified)
T/C (dose: 1600.0 mg/kg/injection, schedule: Q07DX002 (ip), vehicle: saline): 82 % of control

CCOC(=O)NC1=C(N2CC2)C(=O)C(NC(=O)OCC)=C(N2CC2)C1=O
T/C (dose: 0.78 mg/kg/injection, schedule: Q07DX002 (ip), vehicle: saline): 98 % of control | T/C (dose: 0.78 mg/kg/injection, schedule: Q07DX002 (ip), vehicle: suspension in saline): 102 % of control | T/C (dose: 1.56 mg/kg/injection, schedule: Q07DX002 (ip), vehicle: saline): 94 % of control | T/C (dose: 1.56 mg/kg/injection, schedule: Q07DX002 (ip), vehicle: suspension in saline): 95 % of control | T/C (dose: 3.13 mg/kg/injection, schedule: Q07DX002 (ip), vehicle: suspension in saline): 95 % of control | T/C (dose: 6.25 mg/kg/injection, schedule: Q07DX002 (ip), vehicle: saline): 77 % of control | T/C (dose: 6.25 mg/kg/injection, schedule: Q07DX002 (ip), vehicle: suspension in saline): 85 % of control | T/C [1]: 69 % of control | T/C [2]: 12 % of control | T/C (dose: 25.0 mg/kg/injection, schedule: Q07DX003 (ip), vehicle: saline): 32 % of control

O=C1CC2(C(=O)N1CN1CCCCC1)c1ccccc1-c1ccccc12
T/C (dose: 12.5 mg/kg/injection, schedule: Q07DX002 (ip), vehicle: Klucel (hydroxypropylcellulose) (HPC)): 58 % of control | T/C (dose: 25.0 mg/kg/injection, schedule: Q07DX002 (ip), vehicle: Klucel (hydroxypropylcellulose) (HPC)): 97 % of control | T/C (dose: 50.0 mg/kg/injection, schedule: Q07DX002 (ip), vehicle: Klucel (hydroxypropylcellulose) (HPC)): 68 % of control | T/C (dose: 100.0 mg/kg/injection, schedule: Q07DX002 (ip), vehicle: Klucel (hydroxypropylcellulose) (HPC)): 102 % of control | T/C (dose: 200.0 mg/kg/injection, schedule: Q07DX002 (ip), vehicle: Klucel (hydroxypropylcellulose) (HPC)): 101 % of control | T/C (dose: 400.0 mg/kg/injection, schedule: Q07DX002 (ip), vehicle: Klucel (hydroxypropylcellulose) (HPC)): 81 % of control

Nc1nncs1
T/C [1]: 71 % of control | T/C [2]: 114 % of control | T/C [3]: 78 % of control | T/C (dose: 50.0 mg/kg/injection, schedule: Q07DX003 (ip), vehicle: saline): 74 % of control | T/C [4]: 68 % of control | T/C (dose: 100.0 mg/kg/injection, schedule: Q07DX003 (ip), vehicle: saline): 78 % of control and 79 % of control | T/C [5]: 53 % of control | T/C (dose: 200.0 mg/kg/injection, schedule: Q07DX003 (ip), vehicle: saline): 58 % of control and 74 % of control | T/C [6]: 65 % of control | T/C (dose: 400.0 mg/kg/injection, schedule: Q07DX003 (ip), vehicle: saline): 35 % of control and 38 % of control | T/C (dose: 800.0 mg/kg/injection, schedule: Q07DX003 (ip), vehicle: saline): 51 % of control and 53 % of control

ClC(Cl)=C(Cl)Cl
T/C (dose: 28.0 mg/kg/injection, schedule: Q07DX002 (ip), vehicle: saline with Tween-80): 88 % of control and 103 % of control | T/C (dose: 50.0 mg/kg/injection, schedule: Q07DX002 (ip), vehicle: other): 79 % of control | T/C (dose: 56.0 mg/kg/injection, schedule: Q07DX002 (ip), vehicle: saline with Tween-80): 79 % of control and 100 % of control | T/C (dose: 100.0 mg/kg/injection, schedule: Q07DX002 (ip), vehicle: other): 109 % of control and 112 % of control | T/C (dose: 112.0 mg/kg/injection, schedule: Q07DX002 (ip), vehicle: saline with Tween-80): 52 % of control | T/C (dose: 400.0 mg/kg/injection, schedule: Q07DX002 (ip), vehicle: other): 91 % of control | T/C (dose: 800.0 mg/kg/injection, schedule: Q07DX002 (ip), vehicle: other): 71 % of control

COc1cccc2c1C(=O)c1c(O)c3c(c(O)c1C2=O)C[C@@](O)(C(=O)CO)C[C@@H]3OC1CC(OC(C)=O)C(OC(C)=O)C(C)O1 (stereo partly specified)
T/C (dose: 3.12 mg/kg/injection, schedule: Q07DX002 (ip), vehicle: distilled water + Tween-80): 89 % of control | T/C (dose: 6.25 mg/kg/injection, schedule: Q07DX002 (ip), vehicle: distilled water + Tween-80): 88 % of control | T/C (dose: 12.5 mg/kg/injection, schedule: Q07DX002 (ip), vehicle: distilled water + Tween-80): 65 % of control | T/C (dose: 25.0 mg/kg/injection, schedule: Q07DX002 (ip), vehicle: distilled water + Tween-80): 90 % of control | T/C (dose: 50.0 mg/kg/injection, schedule: Q07DX002 (ip), vehicle: distilled water + Tween-80): 62 % of control

Cc1ccc(NCC2(/N=C/c3ccccc3)OC(CO)C(O)C2O)cc1 (stereo unspecified)
T/C (dose: 12.5 mg/kg/injection, schedule: Q07DX003 (ip), vehicle: Klucel (hydroxypropylcellulose) (HPC)): 110 % of control | T/C (dose: 25.0 mg/kg/injection, schedule: Q07DX003 (ip), vehicle: Klucel (hydroxypropylcellulose) (HPC)): 69 % of control | T/C (dose: 50.0 mg/kg/injection, schedule: Q07DX003 (ip), vehicle: Klucel (hydroxypropylcellulose) (HPC)): 117 % of control | T/C (dose: 100.0 mg/kg/injection, schedule: Q07DX003 (ip), vehicle: Klucel (hydroxypropylcellulose) (HPC)): 106 % of control | T/C (dose: 200.0 mg/kg/injection, schedule: Q07DX003 (ip), vehicle: Klucel (hydroxypropylcellulose) (HPC)): 59 % of control
